# Where a SMILES comes first, the peptide text is derived from it. Bridges are numbered along the chain shown (N, C = ends).
# Assays:
# [1] = circular dichroism; set-up: unit not given here; conditions: 25 mM Tris, 150 mM NaCl, 5 mM MgCl2; pH 7.5; 5 °C; 30-120 uM
# [2] = circular dichroism (CD) spectroscopy; assay type: physicochemical; conditions: 150 mM NaCl, 5 mM MgCl2, pH 7.5, 5 °C, n=2, free‐thiol (red) samples with 5 mol equivalents TCEP; for MRE222 (mean residue ellipticity at 222 nm): 25 mM Tris, mean ± SD, SD; for % Helicity (estimated): from MRE222 by equation 7, 25 mM Tris
# How it was run: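 Peptides at 30–120 μM in 25 mM Tris, 150 mM NaCl, 5 mM MgCl2, pH 7.5 (plus 5 mol eq. TCEP for free sulfhydryl peptides) were scanned in duplicate at 5 °C from 290 to 180 nm, 1 mm pathlength. Buffer-subtracted ellipticity gave mean residue ellipticity, and % helicity was estimated from MRE at 222 nm.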
# [3] = biological target: T1, N‐Myc/Aurora‐A interaction (Aurora‐A122‐403‐C290A/C393A) (Homo sapiens, UniProt O14965, C290A/C393A); test: competition fluorescence anisotropy (FA) assay against fluorescein labelled N‐Myc61‐89; assay type: binding; conditions: SD; further: equilibrated 2 h at room temperature
# T1 construct: Aurora‐A 122‐403‐C290A/C393A protein was produced as described previously; made in house
# T1 sequence (O14965 122-403 C290A/C393A): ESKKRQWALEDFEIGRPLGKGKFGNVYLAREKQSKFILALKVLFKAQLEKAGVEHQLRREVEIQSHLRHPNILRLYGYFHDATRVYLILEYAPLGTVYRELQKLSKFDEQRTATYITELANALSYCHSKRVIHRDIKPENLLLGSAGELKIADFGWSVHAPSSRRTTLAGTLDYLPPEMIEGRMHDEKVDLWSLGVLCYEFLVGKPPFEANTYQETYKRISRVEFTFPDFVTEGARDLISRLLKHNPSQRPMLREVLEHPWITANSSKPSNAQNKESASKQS
Molecule,helicity [1],MRE222 (mean residue ellipticity at 222 nm) [2],% Helicity (estimated) [2],IC50 [3]
CSCC[C@H](NC(=O)[C@H](CCC(=O)O)NC(=O)[C@@H](NC(=O)[C@@H](NC(=O)[C@H](Cc1c[nH]c2ccccc12)NC(=O)[C@H](CO)NC(=O)[C@@H]1CCCN1C(=O)[C@@H]1CCCN1C(=O)[C@H](COP(=O)(O)O)NC(C)=O)C(C)C)[C@@H](C)O)C(=O)N[C@@H](CC(C)C)C(=O)N[C@@H](CC(C)C)C(=O)N[C@@H](CCC(=O)O)C(=O)N[C@@H](CC(N)=O)C(=O)N[C@@H](CCC(=O)O)C(=O)N[C@@H](CC(C)C)C(=O)N[C@@H](Cc1c[nH]c2ccccc12)C(=O)NCC(N)=O [N‐Myc73‐89‐E73pS],-5390,−5394±235 deg cm^−1 dmol^−1 res^−1,16±1%,
CSCC[C@H](NC(=O)[C@H](CCC(=O)O)NC(=O)[C@@H](NC(=O)[C@@H](NC(=O)[C@H](Cc1c[nH]c2ccccc12)NC(=O)[C@H](CO)NC(=O)[C@@H]1CCCN1C(=O)[C@@H]1CCCN1C(=O)[C@H](CCC(=O)O)NC(C)=O)C(C)C)[C@@H](C)O)C(=O)N[C@@H](CC(C)C)C(=O)N[C@@H](CC(C)C)C(=O)N[C@@H](CCC(=O)O)C(=O)N[C@@H](CC(N)=O)C(=O)N[C@@H](CCC(=O)O)C(=O)N[C@@H](CC(C)C)C(=O)N[C@@H](Cc1c[nH]c2ccccc12)C(=O)NCC(N)=O [N‐Myc73‐89],-4080,−4079±71 deg cm^−1 dmol^−1 res^−1,13±1%,
CSCC[C@@H]1NC(=O)[C@@H](NC(=O)[C@@H](NC(=O)[C@@H](NC(=O)[C@H](Cc2c[nH]c3ccccc23)NC(=O)[C@H](CO)NC(=O)[C@@H]2CCCN2C(=O)[C@@H]2CCCN2C(=O)[C@H](CCC(=O)O)NC(=O)[C@H](CO)NC(=O)[C@H](CO)NC(=O)[C@H](Cc2c[nH]cn2)NC(=O)[C@H](CCC(=O)O)NC(=O)[C@H](C)NC(=O)[C@H](Cc2ccccc2)NC(=O)CNC(=O)[C@H](CCCNC(=N)N)NC(=O)[C@H](CO)NC(=O)[C@@H]2CCCN2C(=O)[C@H](CO)NC(=O)[C@H](CC(C)C)NC(C)=O)C(C)C)[C@@H](C)O)CSSC[C@@H](C(=O)N[C@@H](CC(N)=O)C(=O)N[C@@H](CCC(=O)O)C(=O)N[C@@H](CC(C)C)C(=O)N[C@@H](Cc2c[nH]c3ccccc23)C(=O)NCC(N)=O)NC(=O)[C@H](CC(C)C)NC(=O)[C@H](CC(C)C)NC1=O [N-Myc 61-89 E80C/E84C ox] (Ac-LSPSRGFAEHSSEPPSWVTCMLLCNELWG-NH2; disulfide 20-24),,-2656 ± 28 deg cm^−1 dmol^−1 res^−1,8 ± 1%,107 ± 19 µM
CSCC[C@H](NC(=O)[C@H](CCC(=O)O)NC(=O)[C@@H](NC(=O)[C@@H](NC(=O)[C@H](Cc1c[nH]c2ccccc12)NC(=O)[C@H](CO)NC(=O)[C@@H]1CCCN1C(=O)[C@@H]1CCCN1C(=O)[C@H](CCC(=O)O)NC(=O)[C@H](CO)NC(=O)[C@H](CO)NC(=O)[C@H](Cc1c[nH]cn1)NC(=O)[C@H](CCC(=O)O)NC(=O)[C@H](C)NC(=O)[C@H](Cc1ccccc1)NC(=O)CNC(=O)[C@H](CCCNC(=N)N)NC(=O)[C@H](CO)NC(=O)[C@@H]1CCCN1C(=O)[C@H](CO)NC(=O)[C@H](CC(C)C)NC(C)=O)C(C)C)[C@@H](C)O)C(=O)N[C@@H](CC(C)C)C(=O)N[C@@H](CS)C(=O)N[C@@H](CCC(=O)O)C(=O)N[C@@H](CC(N)=O)C(=O)N[C@@H](CCC(=O)O)C(=O)N[C@@H](CS)C(=O)N[C@@H](Cc1c[nH]c2ccccc12)C(=O)NCC(N)=O [N-Myc 61-89L83C/L87C red] (Ac-LSPSRGFAEHSSEPPSWVTEMLCENECWG-NH2),,-1746 ± 74 deg cm^−1 dmol^−1 res^−1,6 ± 1%,181 ± 9 µM
Ac-EPPSWVTEMLLENELWGSPAEEDAF-NH2 [N‐Myc73‐97],,−4886±55 deg cm^−1 dmol^−1 res^−1,14±1%,79 ± 4 µM

# Source: publication PMC10962542, “Inhibition of Aurora‐A/N‐Myc Protein–Protein Interaction Using Peptidomimetics: Understanding the Role of Peptide Cyclization” (Chembiochem, 2023)
